Laboratory results from ChEMBL document CHEMBL5120813, “Polysubstituted Cyclopentene Benzamides and Dianthramide Alkaloids from Delphinium anthriscifolium Hance” (2022).

Test system: RAW264.7
Test: Antiinflammatory activity in mouse RAW264.7 assessed as inhibition of LPS-induced NO production preincubated for 30 mins followed by LPS stimulation measured after 24 hrs by Griess reagent based assay relative to control
Type: functional
Parameters: concentration or dose not given beside the values
Details: 0.5 h

| SMILES | inhibition (INH) [%] |
| --- | --- |
| COC(=O)c1cc(O)c(O)cc1NC(=O)c1cc(O)ccc1O | 40.3 |
| COC(=O)c1c(NC(=O)c2cccc(O)c2OC)ccc(O)c1OC | 43 |
| COC(=O)c1cc(O)c(O)cc1NC(=O)c1cc(O)ccc1OC | 78.8 |
| COC(=O)c1cc(O)ccc1NC(=O)c1cccc(O)c1OC | 61.2 |
| COC(=O)c1cc(O)c(O)cc1NC(=O)c1ccccc1O | 57.6 |
| O=c1c(O)c(-c2ccc(O)c(O)c2)oc2cc(O)cc(O)c12 [QUERCETIN] | 48.6 |
